The values below come from patent US12421240B2, “Hydropyrazino[1,2-d][1,4]diazepine compounds for the treatment of autoimmune disease” (Hoffmann-La Roche Inc., priority 2019, dated 2025).

Where only a bound is given, the exact number is not on record here.

The target in one data set is T1, human TLR9 (Homo sapiens, UniProt Q9NR96).
T1 sequence (Q9NR96 26-1032): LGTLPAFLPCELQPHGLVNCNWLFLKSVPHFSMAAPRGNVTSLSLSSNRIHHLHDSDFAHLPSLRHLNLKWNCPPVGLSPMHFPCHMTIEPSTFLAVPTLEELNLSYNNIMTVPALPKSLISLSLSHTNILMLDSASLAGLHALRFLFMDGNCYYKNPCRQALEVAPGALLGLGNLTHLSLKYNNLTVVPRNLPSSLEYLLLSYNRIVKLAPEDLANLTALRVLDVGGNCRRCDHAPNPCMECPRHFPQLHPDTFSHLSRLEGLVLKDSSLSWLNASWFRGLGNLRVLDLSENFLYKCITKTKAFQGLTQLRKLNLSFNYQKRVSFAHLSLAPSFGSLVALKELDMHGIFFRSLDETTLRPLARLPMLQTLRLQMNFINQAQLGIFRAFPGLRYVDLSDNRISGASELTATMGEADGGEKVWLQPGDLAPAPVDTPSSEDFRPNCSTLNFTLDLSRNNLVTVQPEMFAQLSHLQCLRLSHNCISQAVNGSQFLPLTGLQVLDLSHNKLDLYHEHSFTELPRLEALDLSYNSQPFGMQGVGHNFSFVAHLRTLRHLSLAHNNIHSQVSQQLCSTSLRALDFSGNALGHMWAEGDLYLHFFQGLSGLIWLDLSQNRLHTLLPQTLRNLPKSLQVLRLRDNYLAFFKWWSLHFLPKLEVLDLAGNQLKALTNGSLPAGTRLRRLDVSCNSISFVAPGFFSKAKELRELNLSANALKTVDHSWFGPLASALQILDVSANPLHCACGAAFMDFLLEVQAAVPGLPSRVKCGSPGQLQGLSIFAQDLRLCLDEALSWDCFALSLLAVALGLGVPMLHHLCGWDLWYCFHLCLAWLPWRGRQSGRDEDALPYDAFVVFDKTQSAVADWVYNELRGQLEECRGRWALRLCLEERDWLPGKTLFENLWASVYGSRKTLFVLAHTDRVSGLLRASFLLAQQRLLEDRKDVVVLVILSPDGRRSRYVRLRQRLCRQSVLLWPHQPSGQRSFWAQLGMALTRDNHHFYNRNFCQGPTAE
Briefly: HEK293-Blue-hTLR-9 cells assay (SEAP reporter, ODN2006 stimulation). Type of data set: cell-based. As to conditions: HEK293-Blue-hTLR9 cells, ODN2006 ligand, 20 hrs; read-out: HEK/hTLR9 IC50. As to the method: The following tests were carried out in order to determine the activity of the compounds of formula (I), (Ia) or (Ib) in HEK293-Blue-hTLR-7/8/9 cells assay.
HEK293-Blue-hTLR-9 Cells Assay:
A stable HEK293-Blue-hTLR-9 cell line was purchased from InvivoGen (Cat. #: hkb-htlr9, San Diego, California, USA). These cells were originally designed for studying the stimulation of human TLR9 by monitoring the activation of NF-κB. A SEAP (secreted embryonic alkaline phosphatase) reporter gene was placed under the control of the IFN-β minimal promoter fused to five NF-κB and AP-1-binding sites. The SEAP was induced by activating NF-κB and AP-1 via stimulating HEK-Blue hTLR9 cells with TLR9 ligands. Therefore the reporter expression was declined by TLR9 antagonist under the stimulation of a ligand, such as ODN2006 (Cat. #: tlrl-2006-1, Invivogen, San Diego, California, USA), for incubation of 20 hrs. The cell culture supernatant SEAP reporter activity was determined using QUANTI-Blue™ kit (Cat. #: rep-qb1, Invivogen, San Diego, California, USA) at a wavelength of 640 nm, a detection medium that turns purple or blue in the presence of alkaline phosphatase.
HEK293-Blue-hTLR9 cells were incubated at a density of 250,000˜450,000 cells/mL in a volume of 170 μL in a 96-well plate in Dulbecco's Modified Eagle's medium (DMEM) containing 4.5 g/L glucose, 50 U/mL penicillin, […], 2 mM L-glutamine, 10% (v/v) heat-inactivated fetal bovine serum with addition of 20 μL test compound in a serial dilution in the presence of final DMSO at 1% and 10 μL of 20 uM ODN2006 in above DMEM, perform incubation under 37° C. in a CO2 incubator for 20 hrs. Then 20 μL of the supernatant from each well was incubated with 180 μL Quanti-blue substrate solution at 37° C. for 2 h and the absorbance was read at 620-655 nm using a spectrophotometer. The signaling pathway that TLR9 activation leads to downstream NF-κB activation has been widely accepted, and therefore similar reporter assay was modified for evaluating TLR9 antagonist.

Data set [1] is described as follows: Human microsomal stability assay. In kind it is in vitro ADME. The settings on record: human liver microsomes, 1 μM test compound, 0.5 mg/mL protein, 37° C.; low <7.0, medium 7.0-16.2, high 16.2-23.2. As to the method:
Human Microsomal Stability Assay
Human liver microsomes (Cat. NO.: 452117, Corning, USA) were preincubated with test compound for 10 minutes at 37° C. in 100 mM potassium phosphate buffer, pH 7.4. The reactions were initiated by adding NADPH regenerating system. The final incubation mixtures contained 1 μM test compound, 0.5 mg/mL liver microsomal protein, 1 mM MgCl2, 1 mM NADP, 1 unit/mL isocitric dehydrogenase and 6 mM isocitric acid in 100 mM potassium phosphate buffer, pH 7.4. After incubation times of 0, 3, 6, 9, 15 and 30 minutes at 37° C., 300 μL of cold ACN (including internal standard) was added to 100 μL incubation mixture to terminate the reaction. Following precipitation and centrifugation, 100 uL supernatant will be taken out and added 300 uL water. The amount of compound remaining in the samples was determined by LC-MS/MS. Controls of no NADPH regenerating system at zero and 30 minutes were also prepared and analyzed. The results were categorized as: low (<7.0 mL/min/kg), medium (7.0-16.2 mL/min/kg) and high (16.2-23.2 mL/min/kg).

Take `C[C@@H]1CN(c2cc(=O)n(C)c3ncccc23)C[C@@H]2CCN(Cc3ccc4c(c3)CNCC4)CCN21` [Example 28, 4-[(4R,10aS)-4-methyl-8-(1,2,3,4-tetrahydroisoquinolin-7-ylmethyl)-1,3,4,6,7,9,10,10a-octahydropyrazino[1,2-d][1,4]diazepin-2-yl]-1-methyl-1,8-naphthyridin-2-one]: the IC50 at human TLR9 is under 31.8 nM. Moreover, the “CL (h)” value in data set [1] came to 6.5 mL/min/kg. `CO[C@@H]1CN(c2cnc(CN3CC[C@H]4CN(c5ccc(C#N)c6ncccc56)C[C@@H](C)N4CC3)c(F)c2)C[C@H]1N` [Example 24, 5-[(4R,10aS)-8-[[5-[(3R,4R)-3-amino-4-methoxy-pyrrolidin-1-yl]-3-fluoro-2-pyridyl]methyl]-4-methyl-1,3,4,6,7,9,10,10a-octahydropyrazino[1,2-d][1,4]diazepin-2-yl]quinoline-8-carbonitrile]: the IC50 at human TLR9 was found to be 60.9 nM. The “CL (h)” value in data set [1] is listed as 9.4 mL/min/kg.

Take `C[C@@H]1CN(c2ccc(C#N)c3ncccc23)C[C@@H]2CCN(Cc3ccc4c(c3)CCNC4)CCN21` [Example 11, 5-[(4R,10aS)-4-methyl-8-(1,2,3,4-tetrahydroisoquinolin-6-ylmethyl)-1,3,4,6,7,9,10,10a-octahydropyrazino[1,2-d][1,4]diazepin-2-yl]quinoline-8-carbonitrile]: the IC50 on human TLR9 worked out at 48.7 nM. Moreover, the “CL (h)” value in data set [1] worked out at 8.2 mL/min/kg. Take `C[C@@H]1CN(c2ccc(C#N)c3ncccc23)C[C@@H]2CCN(Cc3cnc(N4CCNCC4)nc3)CCN21` [Example 14, 5-[(4R,10aS)-4-methyl-8-[(2-piperazin-1-ylpyrimidin-5-yl)methyl]-1,3,4,6,7,9,10,10a-octahydropyrazino[1,2-d][1,4]diazepin-2-yl]quinoline-8-carbonitrile]: the IC50 at human TLR9 was 70.5 nM. Also, the “CL (h)” value in data set [1] is recorded as 9.8 mL/min/kg. For the compound `C[C@@H]1CN(c2ccc(C#N)c3ncccc23)C[C@@H]2CCN(Cc3cnc(N4CCNCC4)cn3)CCN21` [Example 15, 5-[(4R,10aS)-4-methyl-8-[(5-piperazin-1-ylpyrazin-2-yl)methyl]-1,3,4,6,7,9,10,10a-octahydropyrazino[1,2-d][1,4]diazepin-2-yl]quinoline-8-carbonitrile], on human TLR9, the IC50 is 36.1 nM. Further, the “CL (h)” value in data set [1] was determined as 9.9 mL/min/kg. For the compound `C[C@@H]1CN(c2ccc(C#N)c3ncccc23)C[C@@H]2CCN(Cc3ccc(N4CCOC[C@H](N)C4)cn3)CCN21` [Example 21, 5-[(4R,10aS)-8-[[5-[(6R)-6-amino-1,4-oxazepan-4-yl]-2-pyridyl]methyl]-4-methyl-1,3,4,6,7,9,10,10a-octahydropyrazino[1,2-d][1,4]diazepin-2-yl]quinoline-8-carbonitrile], the IC50 on human TLR9 was determined as 105 nM. For the same compound, in data set [1], the “CL (h)” value is listed as 8.5 mL/min/kg. With `C[C@@H]1CN(c2ccc(C#N)c3ncccc23)C[C@@H]2CCN(Cc3ccc(N4CCNCC4)nc3)CCN21` [Example 17, 5-[(4R,10aS)-4-methyl-8-[(6-piperazin-1-yl-3-pyridyl)methyl]-1,3,4,6,7,9,10,10a-octahydropyrazino[1,2-d][1,4]diazepin-2-yl]quinoline-8-carbonitrile], at human TLR9, the IC50 was under 31.8 nM. Further, in data set [1], the “CL (h)” value is 9.2 mL/min/kg. Consider `C[C@@H]1CN(c2ccc(C#N)c3ncccc23)C[C@@H]2CCN(Cc3ncc(N4CCNCC4)cc3F)CCN21` [Example 23, 5-[(4R,10aS)-8-[(3-fluoro-5-piperazin-1-yl-2-pyridyl)methyl]-4-methyl-1,3,4,6,7,9,10,10a-octahydropyrazino[1,2-d][1,4]diazepin-2-yl]quinoline-8-carbonitrile], for which the IC50 on human TLR9 amounted to 39.1 nM. In addition, the “CL (h)” value in data set [1] was found to be 8.8 mL/min/kg. Regarding `CO[C@@H]1CN(c2cnc(CN3CC[C@H]4CN(c5ccc(C#N)n6nccc56)C[C@@H](C)N4CC3)c(F)c2)C[C@H]1N` [Example 26, 4-[(4R,10aS)-8-[[5-[(3R,4R)-3-amino-4-methoxy-pyrrolidin-1-yl]-3-fluoro-2-pyridyl]methyl]-4-methyl-1,3,4,6,7,9,10,10a-octahydropyrazino[1,2-d][1,4]diazepin-2-yl]pyrazolo[1,5-a]pyridine-7-carbonitrile], at human TLR9, the IC50 came to 87.4 nM.
